Experimental data from patent publication US20250313526A1, “PYRETHROID COMPOUND CONTAINING DOUBLE BONDS AND CYANO GROUPS, SYNTHESIS METHOD THEREFOR, AND APPLICATION THEREOF” (Jiangsu Yangnong Chemical Co., Ltd., priority 2022, published 2025).

Assays:
Assay type in all cases: in vivo
[1] = test system: female mosquitoes of Culex pipiens pallens; assay: Mosquito-repellent incense mosquito-killing efficacy, sealed drum apparatus (GB/T13917.4-2009); conditions: for KT50: mosquito-repellent incense W1-W5, active ingredient 0.04 w/w %, incense burnt 1 min, 20 female Culex pipiens pallens
Experimental: 99.96 parts by weight of a mixture consisting of corn starch, carbon powder and wood powder (1:5:4) were added with 120 parts by mass of water, kneaded into shape, and then dried to form a mosquito-repellent incense substrate (with a diameter of 12.0 cm, a thickness of 4 mm, and a pair weighing 40 g).
On the other hand, a 0.4 w/v % solution of compound 1 in kerosene was prepared. The set of incense substrate was uniformly spray-coated with 4 ml of the above solution using a microsyringe, and then left to dry at room temperature for 3 h to obtain a set of mosquito-repellent incense W1 containing 0.04 w/w % compound 1.
Similarly, compounds 2-3 of the present invention shown in Table 1, as well as Momfluorothrin and tetramethylfluthrin were prepared respectively to obtain corresponding mosquito-repellent incenses W2 to W5.
The mosquito-repellent incenses W2 to W5 were measured and compared in terms of mosquito-killing efficacy in accordance with GB/T13917.4-2009. […] The specific process was as follows: sucking 20 test mosquitoes with a mosquito suction tube, placing them into a sealed drum apparatus, taking a section of mosquito-repellent incense to be tested and placing it on an incense holder, lighting the incense and starting timing, removing the mosquito-repellent incense after 1 min, and recording the number of test mosquitos knocked down at regular intervals.

Mosquitoes = assay: Insecticidal aerosol efficacy, sealed drum apparatus (GB/T13917.2-2009), mosquitoes; conditions: for Mortality rate: aerosol 0.3% active ingredient, 24 h; for Mortality rate / KT50: 1 g sprayed, mosquitoes; for KT50: aerosol containing 0.3% active ingredient
Experimental: (§1) 0.3 parts by weight of compound 1 with 59.7 parts by weight of kerosene were heated and evenly mixed to prepare an insecticide. The resulting preparation was placed in an aerosol can equipped with a valve, through which 40.0 parts by weight of propane and butane were injected underpressure, to obtain an insecticidal aerosol containing 0.3% compound 1.
(§2) The insecticidal aerosol was tested for efficacy on mosquitoes, flies, and German cockroaches in accordance with GB/T13917.2-2009, using a sealed drum apparatus. The specific process was as follows: placing the test insects into a tank, and after the test insects resumed normal activities, quantitatively spraying 1 g of the agent from the insecticidal aerosol can, pulling out the baffle after 1 min to make the test insects in contact with the agent, immediately starting timing and recording the number of the test insects knocked down at regular intervals, transferring all the test insects to a clean insect rearing cage after 20 min, and checking the number of dead insects after 24 h, wherein the German cockroaches were tested for 72-h mortality rate.
(§3) The aerosols of compounds 1-3, Momflurothrin and tetramethylfluthrin were prepared according to Test Example 2, and were tested for efficacy.

Flies = assay: Insecticidal aerosol efficacy, sealed drum apparatus (GB/T13917.2-2009), flies; conditions: 1 g sprayed; for Mortality rate: aerosol 0.3% active ingredient, 24 h; for KT50: aerosol containing 0.3% active ingredient
Experimental: as §1, §2, §3

German cockroaches = assay: Insecticidal aerosol efficacy, sealed drum apparatus (GB/T13917.2-2009), German cockroaches; conditions: 1 g sprayed; for Mortality rate: aerosol 0.3% active ingredient, 72 h; for KT50: aerosol containing 0.3% active ingredient
Experimental: as §1, §2, §3

Rat acute oral toxicity = conditions: in vivo, read-out: rat acute oral toxicity median lethal dose (LD50)
rat [2] = assay: Rat acute oral toxicity
[3] = Rat acute dermal toxicity; conditions: in vivo, topical or ocular, read-out: rat acute dermal toxicity median lethal dose (LD50)
rat [4] = assay: Rat acute dermal toxicity

Row | Structure (SMILES) | KT50 [1] [min] | Mortality rate (Mosquitoes) [%] | KT50 (Mosquitoes) [min] | Mortality rate (Flies) [%] | KT50 (Flies) [min] | Mortality rate (German cockroaches) [%] | KT50 (German cockroaches) [min] | activity as mosquito-repellent incense ([1]; as mosquito-repellent incense) | knockdown activity against mosquitoes (Mosquitoes; as an aerosol in a cylindrical container) | LD50 (Rat acute oral toxicity) [mg/kg] | acute oral toxicity classification (rat [2]) | LD50 [3] [mg/kg] | acute dermal toxicity classification (rat [4])
1 | CC1(C)C(/C=C\C#N)C1C(=O)OCc1c(F)ccc(F)c1F (centres unmarked) [Compound 2, 2,3,6-trifluorobenzyl (Z)-3-(2-cyanovinyl)-2,2-dimethylcyclopropanecarboxylate] | 5.42 | 100 | 3.58 | 100 | 4.65 | 90 | 6.26 | – | – | – | – | – | –
2 | COCc1c(F)c(F)c(COC(=O)C2C(C)(C)C2(C)C)c(F)c1F [tetramethylfluthrin, reference compound] | 9.23 | 100 | 6.46 | 80 | 8.56 | 65 | 9.12 | – | – | – | – | – | –
3 | CC1(C)C(/C=C\C#N)C1C(=O)OCc1cc(F)cc(F)c1F (centres unmarked) [Compound 1, 2,3,5-trifluorobenzyl (Z)-3-(2-cyanovinyl)-2,2-dimethylcyclopropanecarboxylate] | 2.45 | 100 | 1.33 | 100 | 2.32 | 95 | 4.05 | – | – | – | – | – | –
4 | COCc1c(F)c(F)c(COC(=O)C2C(/C=C(/C)C#N)C2(C)C)c(F)c1F (centres unmarked) [Momfluorothrin, reference compound] | 27.87 | 100 | 12.35 | 70 | 15.28 | 60 | 17.56 | relatively poor activity | good knockdown activity | – | – | – | –
5 | CC1(C)C(/C=C\C#N)C1C(=O)OCc1c(F)c(F)cc(F)c1F (centres unmarked) [Compound 3, 2,3,5,6-tetrafluorobenzyl (Z)-3(2-cyanovinyl)-2,2-dimethylcyclopropanecarboxylate] | 4.65 | 100 | 2.45 | 100 | 3.45 | 95 | 5.52 | – | – | > 5000 | slightly toxic | > 5000 | slightly toxic
